Consider 11 compounds from US7432276B2, “ABCA1 elevating compounds” (CV Therapeutics, Inc., priority 2005, dated 2008).

The test system of the assay is ABCA1 mRNA. The experiment in a line: ABCA1 mRNA induction in THP-1 cells, QuantiGene branched DNA assay. In kind it is cell-based. The settings on record: 10 μM test compound, 18-20 hours; for fold induction at 10 µM: Homo sapiens, read-out: ABCA1 Induction Fold Increase over DMSO Vehicle. The method, then: Modulation of expression of ABCA1 mRNA levels by the compounds of the invention was determined in the following assays.
Induction of ABC1 in THP-1 cells, was measured using QuantiGene® branched DNA assay as per manufacturer's instructions. Cultures of THP-1 were grown to subconfluence in DMEM/10% FBS before replacement with DMEM/BSA and 10 and 3 μM concentrations of the test compounds in DMSO for 18-20 hours. After treatment of cells with compounds, the cells were lysed with lysis buffer at 37° C. for 20 minutes. The cell lysate and ABCA1 specific probe (Genospectra, Inc., Fremont, Calif.) mix were added to the 96 well capture plate and hybridized at 53° C. for 16-18 hours. The signal was amplified using the amplifier and label probes provided with the QuantiGene® assay followed by addition of a luminescent alkaline phosphatase substrate, dioxitane. Luminescence was quantified in Victor V plate reader.
Step 1 • Cells are lysed to release mRNA in the presence of target probes. Target mRNA from lysed cells was then captured by hybridization and transferred to the Capture Plate.
Step 2 • Signal amplification was performed by hybridization of the bDNA Amplifier and Label Probe.
Step 3 • Addition of chemiluminescence substrate yielded a QuantiGene® signal proportional to the amount of mRNA present in the sample.
Table 1 presents the relative fold increase in ABCA1 expression over DMSO for various compounds of the invention when tested at a concentration of […].

On to `CCOP(=O)(Cc1ccc2c(c1)C(C)(C)[C@@H]1COc3c(OC)cc(Br)cc3[C@H]1N2)OCC` [Number 179, diethyl((6aS,12aS)-2-bromo-6a,7,12,12a-tetrahydro-4-methoxy-7,7-dimethyl-6H-chromeno[4,3-b]quinolin-9-yl)methylphosphonate], for which the fold induction at 10 µM is 5.2.

On to `COC(=O)c1ccc2c(c1)C(C)(C)[C@H]1COc3c(OC)cc(-c4c(C)noc4C)cc3[C@H]1N2` (racemic) [Number 162, (6aR,12aS)-methyl 6a,7,12,12a-tetrahydro-4-methoxy-7,7-dimethyl-2-(3,5-dimethylisoxazol-4-yl)-6H-chromeno[4,3-b]quinoline-9-carboxylate], for which the fold induction at 10 µM came out at 7.7.

For the compound `CCOc1ccc2c(c1)C(C)(C)[C@H]1COc3cccc(OC)c3[C@H]1N2` [Number 56, (12aS,6aR)-9-ethoxy-1-methoxy-7,7-dimethyl-7,12,12a,6a-tetrahydrochromano[4,3-b]quinoline], the “ABCA1 Induction Fold Increase over DMSO Vehicle” value (shortened to “ABCA1 Induction Fold Increase”) is on record as 4.8 FOLD INCREASE.

As to `COc1cc(Br)cc2c1OC[C@@H]1[C@@H]2Nc2ccc(-c3cnco3)cc2C1(C)C` [Number 150, (6aS,12aS)-2-bromo-6a,7,12,12a-tetrahydro-4-methoxy-7,7-dimethyl-9-(oxazol-5-yl)-6H-chromeno[4,3-b]quinoline], the fold induction at 10 µM is 12.5.

As for `COc1cccc2c1[C@H]1Nc3ccc(-n4cc(C(=O)O)cn4)cc3C(C)(C)[C@H]1CO2` [Number 136, 1-((6aR,12aS)-6a,7,12,12a-tetrahydro-1-methoxy-7,7-dimethyl-6H-chromeno[4,3-b]quinolin-9-yl)-1H-pyrazole-4-carboxylic acid], the fold induction at 10 µM was found to be 4.1.

For `COc1cccc2c1OC[C@@H]1[C@@H]2Nc2ccccc2C1(C)C` [Number 38, (12aS,6aS)-4-methoxy-7,7-dimethyl-7,12,12a,6a-tetrahydrochromano[4,3-b]quinoline], the “ABCA1 Induction Fold Increase” value was determined as 7.0 FOLD INCREASE.

Consider `Cc1c(C(=O)N2CCS(=O)(=O)CC2)cnn1-c1ccc2c(c1)C(C)(C)[C@H]1COc3cccc(F)c3[C@H]1N2` [Number 145, 1-((6aR,12aS)-6a,7,12,12a-tetrahydro-1-fluoro-7,7-dimethyl-6H-chromeno[4,3-b]quinolin-9-yl)1-5-methyl-1H-pyrazole-4-((1,1-dione-1,4-thiazaperhydroin-yl)methanone)], for which the “ABCA1 Induction Fold Increase” value turned out to be 4.5 FOLD INCREASE.

On to `CN(C)C(=O)CCc1ccc2c(c1)C1Nc3ccc(C(O)(C(F)(F)F)C(F)(F)F)cc3C(C)(C)C1CO2` (centres unmarked) [Number 39, 3-{7,7-dimethyl-9-[2,2,2-trifluoro-1-hydroxy-1-(trifluoromethyl)ethyl](7,12,12a,6a-tetrahydrochromano[4,3-b]quinolin-2-yl)}-N,N-dimethylpropanamide], for which the fold induction at 10 µM is 3.4.

`COc1cccc2c1[C@H]1Nc3ccc(-c4ccc(C(F)(F)F)cc4)cc3C(C)(C)[C@@H]1CO2` [Number 93, (12aS,6aS)-1-methoxy-7,7-dimethyl-9-[4-(trifluoromethyl)phenyl]-7,12,12a,6a-tetrahydrochromano[4,3-b]quinoline]: the “ABCA1 Induction Fold Increase” value was 6.8 FOLD INCREASE.

For `COc1ccc(Br)c2c1OCC1C2Nc2ccc(OC(C)C)cc2C1(C)C` (centres unmarked) [Number 83, 1-bromo-4-methoxy-7,7-dimethyl-9-(methylethoxy)-7,12,12a,6a-tetrahydrochromano[4,3-b]quinoline], the “ABCA1 Induction Fold Increase” value stood at 2.7 FOLD INCREASE.

As for `COc1cc(I)cc2c1OC[C@@H]1[C@@H]2Nc2ccc(-n3ncc(C(=O)O)c3C)cc2C1(C)C` [Number 177, 1-((6aS,12aS)-6a,7,12,12a-tetrahydro-2-iodo-4-methoxy-7,7-dimethyl-6H-chromeno[4,3-b]quinolin-9-yl)-5-methyl-1H-pyrazole-4-carboxylic acid], the fold induction at 10 µM is 2.6.
